PubChem BioAssay (NCI)
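A five-concentration, 48-hour dose response in 96-well plates underlies each endpoint, interpolated linearly between surrounding concentrations. At the GI50, growth is halved. TGI: total growth inhibition.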

Columns and labels:
Test in all cases: inhibition of tumour cell growth, NCI panel, 48 h
MOLT-4 leukemia = tested on: MOLT-4 leukemia
SF-295 CNS = tested on: SF-295 CNS
SN12C renal = tested on: SN12C renal
NCI-H226 lung = tested on: NCI-H226 lung
COLO 205 colon = tested on: COLO 205 colon
SW-620 colon = tested on: SW-620 colon
T-47D breast = tested on: T-47D breast
CCRF-CEM leukemia = tested on: CCRF-CEM leukemia
U251 CNS = tested on: U251 CNS
SF-539 CNS = tested on: SF-539 CNS
UACC-257 melanoma = tested on: UACC-257 melanoma
SK-MEL-2 melanoma = tested on: SK-MEL-2 melanoma
CAKI-1 renal = tested on: CAKI-1 renal
NCI-H23 lung = tested on: NCI-H23 lung
SR leukemia = tested on: SR leukemia
SK-OV-3 ovarian = tested on: SK-OV-3 ovarian
RPMI-8226 leukemia = tested on: RPMI-8226 leukemia
MALME-3M melanoma = tested on: MALME-3M melanoma
A498 renal = tested on: A498 renal
IGROV1 ovarian = tested on: IGROV1 ovarian
OVCAR-3 ovarian = tested on: OVCAR-3 ovarian
TK-10 renal = tested on: TK-10 renal
SNB-75 CNS = tested on: SNB-75 CNS
KM12 colon = tested on: KM12 colon
NCI-H460 lung = tested on: NCI-H460 lung
SK-MEL-28 melanoma = tested on: SK-MEL-28 melanoma
UACC-62 melanoma = tested on: UACC-62 melanoma
SK-MEL-5 melanoma = tested on: SK-MEL-5 melanoma
MCF7 breast = tested on: MCF7 breast
OVCAR-4 ovarian = tested on: OVCAR-4 ovarian
LOX IMVI melanoma = tested on: LOX IMVI melanoma
DU-145 prostate = tested on: DU-145 prostate
K-562 leukemia = tested on: K-562 leukemia
OVCAR-8 ovarian = tested on: OVCAR-8 ovarian
HL-60(TB) leukemia = tested on: HL-60(TB) leukemia
HT29 colon = tested on: HT29 colon
BT-549 breast = tested on: BT-549 breast
HOP-92 NSCLC = tested on: HOP-92 NSCLC
PC-3 prostate = tested on: PC-3 prostate
HCC-2998 colon = tested on: HCC-2998 colon
SNB-19 CNS = tested on: SNB-19 CNS
NCI-H522 lung = tested on: NCI-H522 lung
MDA-MB-231 breast = tested on: MDA-MB-231 breast
NCI/ADR-RES ovarian = tested on: NCI/ADR-RES ovarian
HOP-62 NSCLC = tested on: HOP-62 NSCLC
786-0 renal = tested on: 786-0 renal
OVCAR-5 ovarian = tested on: OVCAR-5 ovarian
UO-31 renal = tested on: UO-31 renal
HCT-116 colon = tested on: HCT-116 colon
HCT-15 colon = tested on: HCT-15 colon
ACHN renal = tested on: ACHN renal
A549 NSCLC = tested on: A549 NSCLC
M14 melanoma = tested on: M14 melanoma
HS 578T breast = tested on: HS 578T breast
EKVX NSCLC = tested on: EKVX NSCLC
SF-268 CNS = tested on: SF-268 CNS

CCc1cccc2c3c(sc12)C(c1ccc(F)cc1)C(C#N)=C(/N=C/c1ccc(Cl)cc1)O3 (configuration not stated)
GI50 (MOLT-4 leukemia): 519 nM
TGI (MOLT-4 leukemia): > 100000 nM
GI50 (SF-295 CNS): 278 nM
TGI (SF-295 CNS): > 100000 nM
GI50 (SN12C renal): 430 nM
TGI (SN12C renal): > 100000 nM
GI50 (NCI-H226 lung): 379 nM
TGI (NCI-H226 lung): 45900 nM
GI50 (COLO 205 colon): 373 nM
TGI (COLO 205 colon): 2950 nM
GI50 (SW-620 colon): 471 nM
TGI (SW-620 colon): > 100000 nM
GI50 (T-47D breast): 450 nM
TGI (T-47D breast): > 100000 nM
GI50 (CCRF-CEM leukemia): 324 nM
TGI (CCRF-CEM leukemia): 44200 nM
GI50 (U251 CNS): 369 nM
TGI (U251 CNS): 34200 nM
GI50 (SF-539 CNS): 208 nM
TGI (SF-539 CNS): 648 nM
GI50 (UACC-257 melanoma): 43400 nM
TGI (UACC-257 melanoma): > 100000 nM
GI50 (SK-MEL-2 melanoma): 325 nM
TGI (SK-MEL-2 melanoma): 78000 nM
GI50 (CAKI-1 renal): 149 nM
TGI (CAKI-1 renal): > 100000 nM
GI50 (NCI-H23 lung): 578 nM
TGI (NCI-H23 lung): > 100000 nM
GI50 (SR leukemia): 402 nM
TGI (SR leukemia): 19800 nM
GI50 (SK-OV-3 ovarian): 412 nM
TGI (SK-OV-3 ovarian): > 100000 nM
GI50 (RPMI-8226 leukemia): 387 nM
TGI (RPMI-8226 leukemia): > 100000 nM
GI50 (MALME-3M melanoma): 384 nM
TGI (MALME-3M melanoma): > 100000 nM
GI50 (A498 renal): > 100000 nM
TGI (A498 renal): > 100000 nM
GI50 (IGROV1 ovarian): 498 nM
TGI (IGROV1 ovarian): > 100000 nM
GI50 (OVCAR-3 ovarian): 709 nM
TGI (OVCAR-3 ovarian): > 100000 nM
GI50 (TK-10 renal): 6800 nM
TGI (TK-10 renal): > 100000 nM
GI50 (SNB-75 CNS): 376 nM
TGI (SNB-75 CNS): 79800 nM
GI50 (KM12 colon): 701 nM
TGI (KM12 colon): > 100000 nM
GI50 (NCI-H460 lung): 427 nM
TGI (NCI-H460 lung): > 100000 nM
GI50 (SK-MEL-28 melanoma): 492 nM
TGI (SK-MEL-28 melanoma): > 100000 nM
GI50 (UACC-62 melanoma): 352 nM
TGI (UACC-62 melanoma): > 100000 nM
GI50 (SK-MEL-5 melanoma): 319 nM
TGI (SK-MEL-5 melanoma): 18000 nM
GI50 (MCF7 breast): 392 nM
TGI (MCF7 breast): > 100000 nM
GI50 (OVCAR-4 ovarian): 97600 nM
TGI (OVCAR-4 ovarian): > 100000 nM
GI50 (LOX IMVI melanoma): 576 nM
TGI (LOX IMVI melanoma): > 100000 nM
GI50 (DU-145 prostate): 579 nM
TGI (DU-145 prostate): > 100000 nM
GI50 (K-562 leukemia): 128 nM
TGI (K-562 leukemia): > 100000 nM
GI50 (OVCAR-8 ovarian): 500 nM
TGI (OVCAR-8 ovarian): > 100000 nM
GI50 (HL-60(TB) leukemia): 222 nM
TGI (HL-60(TB) leukemia): 649 nM
GI50 (HT29 colon): 323 nM
TGI (HT29 colon): 36500 nM
GI50 (BT-549 breast): 2050 nM
TGI (BT-549 breast): 7840 nM
GI50 (HOP-92 NSCLC): 22400 nM
TGI (HOP-92 NSCLC): > 100000 nM
GI50 (PC-3 prostate): 501 nM
TGI (PC-3 prostate): > 100000 nM
GI50 (HCC-2998 colon): 1140 nM
TGI (HCC-2998 colon): > 100000 nM
GI50 (SNB-19 CNS): 988 nM
TGI (SNB-19 CNS): > 100000 nM
GI50 (NCI-H522 lung): 66 nM
TGI (NCI-H522 lung): 381 nM
GI50 (MDA-MB-231 breast): 364 nM
TGI (MDA-MB-231 breast): > 100000 nM
GI50 (NCI/ADR-RES ovarian): 192 nM
TGI (NCI/ADR-RES ovarian): 683 nM
GI50 (HOP-62 NSCLC): 312 nM
TGI (HOP-62 NSCLC): > 100000 nM
GI50 (786-0 renal): 661 nM
TGI (786-0 renal): > 100000 nM
GI50 (OVCAR-5 ovarian): 421 nM
TGI (OVCAR-5 ovarian): > 100000 nM
GI50 (UO-31 renal): 553 nM
TGI (UO-31 renal): > 100000 nM
GI50 (HCT-116 colon): 383 nM
TGI (HCT-116 colon): > 100000 nM
GI50 (HCT-15 colon): 355 nM
TGI (HCT-15 colon): > 100000 nM
GI50 (ACHN renal): 824 nM
TGI (ACHN renal): > 100000 nM
GI50 (A549 NSCLC): 506 nM
TGI (A549 NSCLC): > 100000 nM
GI50 (M14 melanoma): 335 nM
TGI (M14 melanoma): > 100000 nM
GI50 (HS 578T breast): 255 nM
TGI (HS 578T breast): 80200 nM
GI50 (EKVX NSCLC): 488 nM
TGI (EKVX NSCLC): > 100000 nM
GI50 (SF-268 CNS): 6260 nM
TGI (SF-268 CNS): > 100000 nM
